Values after ≈ are worked out from the molar mass of the structure shown.
Columns and labels:
Tolypocladium sp. T1 = assay: Antifungal test against T1 in PDB / PDB-N media (fresh or 5-day-old T1 broth); type: cell-based; conditions: for effect of supplemental NaNO3 in test medium on antifungal efficacy: against T1, PDB-N = PDB plus 2 g/L NaNO3; for sensitivity of T1 to antifungal activity, normal versus NaNO3-supplemented medium: freshly prepared media, 3-day test window; for resistance of T1 culture: test medium prepared from 5-day-old T1 culture broth, non-NaNO3-supplemented
Description: (§1) Media types: PDB (potato dextrose broth); PDB-N(PDB plus 2 g/L NaNO3); PDB 8:2 (mixture of centrifuged broth of T1 grown in PDB for 5 days with fresh PDB at the ratio of 8:2); PDB-N 8:2 (mixture of centrifuged broth of T1 grown in PDB-N for 5 days with fresh PDB at the ratio of 8:2).
(§2) This prompted us to ask the question what effect the addition of the shikimate analogue moiety had on the bioactivities of compounds 8, 9, 12, and the other nucleophilic substances that we tested. A panel of fungi including four Tolypocladium spp. (T1-T4), four Penicillium spp. (P1-P4) and Aspergillus niger (A1) were selected for assessment. […] To test the capacity of 11 to block the toxicity of 13 in real time, fungal cultures were preincubated with 11 and then treated with varying doses of 13. This regimen of preadministering 11 afforded up to an 8-fold decrease in the MIC of 13 (FIG. 15A). […] We had also noted that the addition of NaNO3 to the culture medium thoroughly abolished the formation of 10 and 11. […] Whereas previously reported resistance mechanisms involving antibiotic modification depended on the enzymatic modification of target substrates, fungal metabolites 10 and 11 functioned as electrophilic warheads that were reactive to a wide variety of natural and synthetic organic substances. The actions of these metabolites serve to limit the deleterious effects of antibiotics/toxins against their microbial targets.
The effects of compounds on fungal growth of fungi were tested using the method described in the NCCLS M38-A guidelines with following modifications. Fungi were cultured on PDA plates (potato dextrose agar, Becton Dickinson and Company) at 25° C. for 6-10 days. The spores/mycelia were disrupted by mechanical agitation and diluted in RPMI 1640 medium (Sigma Chemical Corporation) buffered to pH 7.0 with MOPS (0.165 M, Sigma). Test compounds were prepared in DMSO or EtOH at stock concentrations of 10 mM before being serially diluted in 50 μL RPMI 1640 plus MOPS medium for testing. Aliquots of spore suspension were added to the medium containing the diluted compounds or vehicle (<1% by vol.). After 72 h of incubation at 25° C., the optical densities of fungi were measured using a microplate reader (Infinite M200, Tecan Group Ltd.). The minimum inhibitory concentration (MIC) for growth was defined as the lowest concentration causing prominent growth reduction (>80%). The RPMI 1640 medium was replaced by PDB medium or PDB-N(PDB with 2 g/L NaNO3) for the indicated antifungal tests.

[1] = Thiol neutralization on pig skin (LCMS); conditions: with spermine in 50% propylene glycol, 2-phenylethanethiol, 10 min
Method: After the Pericosine composition was applied to the thiol on the pig skin and allowed to react for 10 minutes, an eluate from the treated area was analyzed with LCMS. Only a pericosine-thiol conjugate was detected.
Pericosine A, spermine, and the model thiol compound 2-phenylethanethiol were prepared into 100 mM stock solutions in dimethyl sulfoxide (DMSO). 5 uL pericosine A and 5 uL spermine solutions were pre-mixed into 50 uL 50% propylene glycol to form a test composition. A piece of pig skin (1 inch×1 inch) was placed in a 10-cm ID petri dish. 5 uL of the thiol solution was dispensed onto the pig skin sample. The pericosine test composition was applied to the thiol-treated spot on the pig skin sample. The petri dish was covered and gently agitated to cause the thiol sample to mix with the pericosine test composition. After 10 min incubation, the solution on the pig skin was transferred using a pipet into an Eppendorf tube. The treated spot on the pig skin was extracted with 100 uL MeOH and the MeOH solution was combined with the solution in the Eppendorf tube. After mixing and centrifuging, the mixed solution was subjected to LCMS analysis.
As shown in FIG. 21(a), a major pericosine-thiol conjugated product was detected by the LCMS analysis in the solution removed from the pig skin.

[2] = system: EpiDerm™ reconstructed human epidermis tissues; assay: Time course toxicity in EpiDerm tissues (MTT assay); type: cell-based; conditions: after 24 hours
Method: All substances are safe for greater than 24 hours, at even a very high dose of 500 μM. […] Viability of EpiDerm™ tissues was determined by MTT assay.

IL-1 alpha = IL-1 alpha cytokine response in media of EpiDerm tissues (ELISA); type: cell-based, human; conditions: media of EpiDerm tissues after exposure
Method: IL-1 alpha secretion was not elevated in response to the test compounds, indicating a low potential for allergic reactions. […] Cytokine levels were determined by ELISA.

[3] = system: four Tolypocladium spp. (T1-T4), four Penicillium spp. (P1-P4) and Aspergillus niger (A1); assay: Antifungal test (MIC) against a panel of test fungi; type: cell-based; conditions: against all of the fungal strains of the panel, 72 h, 25° C., MIC = >80% growth reduction, read-out: MIC (growth inhibition)
Method: as §2, with “The actions of these metabolites serve to limit the deleterious effects of antibiotics/toxins against their microbial targets.” left out
(§3) The effects of compounds on fungal growth of fungi were tested using the method described in the NCCLS M38-A guidelines with following modifications. […] After 72 h of incubation at 25° C., the optical densities of fungi were measured using a microplate reader (Infinite M200, Tecan Group Ltd.). […]

[4] = system: fungi T1, T2, P1, P4, and A1; assay: Antifungal test of 13 on fungal cultures preincubated / co-treated with 11; type: cell-based, Tolypocladium spp., Penicillium spp., Aspergillus niger
Description: as §1
This prompted us to ask the question what effect the addition of the shikimate analogue moiety had on the bioactivities of compounds 8, 9, 12, and the other nucleophilic substances that we tested. A panel of fungi including four Tolypocladium spp. (T1-T4), four Penicillium spp. (P1-P4) and Aspergillus niger (A1) were selected for assessment. […] To test the capacity of 11 to block the toxicity of 13 in real time, fungal cultures were preincubated with 11 and then treated with varying doses of 13. This regimen of preadministering 11 afforded up to an 8-fold decrease in the MIC of 13 (FIG. 15A). […] We had also noted that the addition of NaNO3 to the culture medium thoroughly abolished the formation of 10 and 11. […]
as §3

[5] = Stability / isomerization in solvents; type: physicochemical; conditions: for stability in solvents: CH2Cl2, CHCl3, MeOH, and EtOH at room temperature; for stability on prolonged storage: in alcohol over several weeks
Description: The resulting mixture was purified on HPLC yielding 4 and its diastereomer 5. […] The ^1H and ^13C NMR data of 4 and 5 were almost identical (Tables S2 and S3 of the appendix of U.S. Provisional Patent Application 62/295,343). […] Thus, the absolute configuration of C-3′-C-5′ was deduced as 3'S,4'S,5'S, opposite to that of 4.

Compound	effect of supplemental NaNO3 in test medium on antifungal efficacy (Tolypocladium sp. T1)	sensitivity of T1 to antifungal activity, normal versus NaNO3-supplemented medium (Tolypocladium sp. T1)	resistance of T1 culture (Tolypocladium sp. T1)	stability in solvents [5]	stability on prolonged storage [5]	also measured
PF1140 [Compound 8]	enhanced	equally sensitive	increasingly resistant			
COC(=O)C1=C[C@H](O)[C@H](O)[C@H](O)[C@H]1Cl [Compound 11, (+)-pericosine A]						neutralization of thiol on a surface (pig skin) ([1]; listed as Pericosine A): completely neutralize; neutralization of thiol on a surface (pig skin) ([1]; listed as pericosine A): quantitative consumption
Triton X-100						EpiDerm tissue outcome ([2]; 1% control in the test with activating compound and fragrance): epidermal death; EpiDerm tissue outcome ([2]; 1% control, MTT assay): epidermal death; IL-1 alpha secretion (IL-1 alpha): significant response
Cc1cc(C2CCCCC2)n(O)c(=O)c1 [Compound 13, ciclopirox]	enhanced	equally sensitive	increasingly resistant			MIC [3]: 1 to 50 µM (≈ 0.207 to 10.4 µg/mL); antifungal efficacy of 13 on co-treatment with 11 ([4]; co-treatment by 11 plus 13, fungi T1, T2, P1, P4, A1): reduced; decrease in the MIC of 13 ([4]; fungal cultures preincubated with 11, then treated with varying doses of 13): ≤ 8 fold
pseudomaximiscin B [Compound 5]				stable for several days	modest levels of compound rearrangement	
pseudomaximiscin A [Compound 4]				stable for several days	modest levels of compound rearrangement	stability in DMSO-d6 ([5]; dissolved in DMSO-d6): Rapid isomerization

— patent US20220144747A1, “SHIKIMATE ANALOGUES AND METHODS OF USE” (The Board of Regents of the University of Oklahoma, priority 2016, published 2022)
